Data set [1] can be described thus: Inhibition of bovine trypsin. Further details: species or system Bos taurus.
The species entered for another data set is Homo sapiens. Kind of data set: Antithrombotic activity by measuring the activated partial thromboplastin time(aPPT) in human plasma. It counts as functional.
A further data set has as its target Coagulation factor X (Homo sapiens, UniProt P00742). Kind of data set: Inhibition of coagulation factor X.
A further data set has as its target Prothrombin (Homo sapiens, UniProt P00734). Kind of data set: Inhibition of human thrombin.
A further data set has as its target Plasminogen (Homo sapiens, UniProt P00747). Kind of data set: Inhibition of plasmin.
The nature of data set [2]: Partition coefficient (logP). It counts as physicochemical. As to conditions: octanol/water.

This is an account of results in ChEMBL document CHEMBL1146615, “Heterocyclic thrombin inhibitors. Part 2: quinoxalinone derivatives as novel, potent antithrombotic agents” (Bioorg Med Chem Lett, 2003).

Some results are limits rather than exact numbers.

The term IC50 denotes the concentration that inhibits the measured activity by half. High values mean weaker potency, low ones greater potency. The term logP denotes the decadic logarithm of the partition coefficient of the neutral form, usually between octanol and water. Read a high logP as a more lipophilic compound.

Coagulation factor X, sequence (P00742 41-179 limits assumed): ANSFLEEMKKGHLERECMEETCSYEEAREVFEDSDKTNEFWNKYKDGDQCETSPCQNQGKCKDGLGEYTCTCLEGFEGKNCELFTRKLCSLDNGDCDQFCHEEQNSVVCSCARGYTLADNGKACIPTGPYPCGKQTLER
Coagulation factor X, sequence (P00742 235-488 limits assumed): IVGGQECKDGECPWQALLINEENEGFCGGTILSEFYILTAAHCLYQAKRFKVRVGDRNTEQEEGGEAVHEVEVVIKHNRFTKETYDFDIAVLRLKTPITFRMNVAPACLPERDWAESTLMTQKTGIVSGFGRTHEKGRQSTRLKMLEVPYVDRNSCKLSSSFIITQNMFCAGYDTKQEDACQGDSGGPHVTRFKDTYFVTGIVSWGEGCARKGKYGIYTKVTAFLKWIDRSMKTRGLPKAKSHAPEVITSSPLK
Plasminogen, sequence (P00747 97-580 limits assumed): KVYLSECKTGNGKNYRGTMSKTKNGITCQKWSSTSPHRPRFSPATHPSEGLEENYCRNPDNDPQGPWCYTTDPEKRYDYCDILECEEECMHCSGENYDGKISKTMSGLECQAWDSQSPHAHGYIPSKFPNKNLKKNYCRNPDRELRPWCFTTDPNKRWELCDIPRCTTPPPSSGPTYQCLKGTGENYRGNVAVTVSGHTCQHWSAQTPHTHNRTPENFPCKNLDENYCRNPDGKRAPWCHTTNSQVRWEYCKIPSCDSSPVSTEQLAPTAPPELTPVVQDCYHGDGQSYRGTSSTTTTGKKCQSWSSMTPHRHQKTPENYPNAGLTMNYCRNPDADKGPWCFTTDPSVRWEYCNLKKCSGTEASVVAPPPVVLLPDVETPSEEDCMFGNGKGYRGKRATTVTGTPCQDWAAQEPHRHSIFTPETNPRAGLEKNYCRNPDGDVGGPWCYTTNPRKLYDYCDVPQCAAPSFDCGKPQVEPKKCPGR
Plasminogen, sequence (P00747 581-810 limits assumed): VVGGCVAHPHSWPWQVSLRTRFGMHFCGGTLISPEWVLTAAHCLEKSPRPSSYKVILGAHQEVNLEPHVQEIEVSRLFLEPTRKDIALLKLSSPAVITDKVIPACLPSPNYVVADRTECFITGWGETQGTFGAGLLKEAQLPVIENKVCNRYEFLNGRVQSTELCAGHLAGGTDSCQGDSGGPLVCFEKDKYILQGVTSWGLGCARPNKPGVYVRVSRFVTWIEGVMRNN

As for `Cn1c(=O)c(Cc2ccc(C(=N)N)cc2)nc2cc(C3(N(C(=O)CC(=O)O)C4CCCC4)CC3)ccc21`, the concentration for half-maximal inhibition (IC50) turned out to be 550 nM in data set [1], 3000 nM against Coagulation factor X, 15 nM against Prothrombin and 36000 nM against Plasminogen. For the same compound, the ED200 in the data set listed under Homo sapiens stood at 0.45 µM.

Regarding `CCOC(=O)C1(c2ccc3c(c2)nc(Cc2ccc(C(=N)N)cc2)c(=O)n3C)CC1`, the half-maximal inhibitory concentration (IC50) was 580 nM in data set [1], 46000 nM on Coagulation factor X, 27 nM against Prothrombin and 69000 nM against Plasminogen. This compound showed an ED200 in the data set listed under Homo sapiens of 0.67 µM.

For `Cn1c(=O)c(Cc2ccc(C(=N)N)cc2)nc2cc(C(C)(C)C(=O)N3CCCCC3)ccc21`, the IC50 in data set [1] was 2200 nM; on Coagulation factor X, 400 nM; at Prothrombin, 8 nM; against Plasminogen, 60000 nM. This compound also registered an ED200 in the data set filed under Homo sapiens of 0.25 µM.

Consider `Cn1c(=O)c(Cc2ccc(C(=N)N)cc2)nc2cc(C3(C(=O)N4CCCC4)CC3)ccc21`, for which the ED200 in the data set filed under Homo sapiens stood at 0.095 µM. This compound yielded a logP in data set [2] of 1.5. The same compound registered an IC50 against Plasminogen of 66000 nM.

With `Cn1c(=O)c(Cc2ccc(C(=N)N)cc2)nc2cc(C(C)(C)C(=O)N3CCCC3)ccc21`, the IC50 in data set [1] stood at 320 nM; against Coagulation factor X, 500 nM; at Prothrombin it was 5 nM; against Plasminogen, 53000 nM. Further, in the data set filed under Homo sapiens, the ED200 turned out to be 0.16 µM. This compound yielded a logP in data set [2] of 1.

Regarding `Cn1c(=O)c(Cc2ccc(C(=N)N)cc2)nc2cc(C3(C(=O)O)CC3)ccc21`, in the data set listed under Homo sapiens, the ED200 was over 10 µM. For the same compound, the half-inhibitory concentration (IC50) on Coagulation factor X was over 100000 nM.

Regarding `CC1CCCN(C(=O)C(C)(C)c2ccc3c(c2)nc(Cc2ccc(C(=N)N)cc2)c(=O)n3C)C1` (centres undefined), in the data set listed under Homo sapiens, the ED200 stood at 0.12 µM. In addition, the IC50 at Coagulation factor X stood at 590 nM; on Prothrombin, 12 nM.

In the case of `CN(C)C(=O)C(C)(C)c1ccc2c(c1)nc(Cc1ccc(C(=N)N)cc1)c(=O)n2C`, the IC50 in data set [1] is 9500 nM; at Coagulation factor X it was 9200 nM; against Prothrombin, 16 nM; against Plasminogen, over 100000 nM. The ED200 in the data set filed under Homo sapiens amounted to 0.41 µM.

Turning to `CCOC(=O)C(C)(C)c1ccc2c(C)cc(Oc3ccc(C(=N)N)cc3)nc2c1`, the IC50 was determined as 2400 nM in data set [1] and 12100 nM against Coagulation factor X. The same compound came in with an ED200 in the data set filed under Homo sapiens of 0.94 µM. The compound also showed a logP in data set [2] of 1.7.

Regarding `CCOC(=O)C(C)(C)c1ccc2c(c1)nc(Cc1ccc(C(=N)N)cc1)c(=O)n2C`, the half-maximal inhibitory concentration (IC50) in data set [1] worked out at 410 nM; against Coagulation factor X, 10600 nM; against Prothrombin, 10 nM; on Plasminogen, 75000 nM. In the data set listed under Homo sapiens, this compound came in with an ED200 of 0.43 µM. In data set [2], this compound returned a log partition coefficient (logP) of 0.5.

Consider `Cn1c(=O)c(Cc2ccc(C(=N)N)cc2)nc2cc(C(C)(C)C(=O)N3CCNCC3)ccc21`, for which the ED200 in the data set listed under Homo sapiens stood at 0.71 µM. For the same compound, the IC50 stood at 31000 nM at Coagulation factor X and 68 nM against Prothrombin.

In the case of `CCOC(=O)C1(c2ccc3c(C)cc(Oc4ccc(C(=N)N)cc4)nc3c2)CCCC1`, the values for the half-inhibitory concentration (IC50) (in data set [1]; against Prothrombin) were 560 nM and 30 nM, respectively.

Turning to `Cn1c(=O)c(Cc2ccc(C(=N)N)cc2)nc2cc(C3(C(=O)N4CCCC4C(=O)NCC(=O)O)CC3)ccc21` (centres undefined), the IC50 in data set [1] was 2400 nM; against Coagulation factor X, over 100000 nM; at Prothrombin it was 190 nM; on Plasminogen, 68000 nM. In addition, the ED200 in the data set listed under Homo sapiens is 0.91 µM.

In the case of `Cn1c(=O)c(Cc2ccc(C(=N)N)cc2)nc2cc(C3(C(=O)N4CCCC4CO)CC3)ccc21` (centres undefined), the concentration for half-maximal inhibition (IC50) was 850 nM in data set [1], 1400 nM against Coagulation factor X, 13 nM against Prothrombin and 72000 nM at Plasminogen. The ED200 in the data set filed under Homo sapiens was 0.21 µM.
